Source: ChEMBL document CHEMBL3045120, “Synthesis, characterization, and evaluation of some novel 4(3H)-quinazolinone derivatives as anti-inflammatory and analgesic agents” (2013)

Key:
Format in all cases: functional
Parameters in all cases: scale not given: the % may be the effect or the level left
Rattus norvegicus [1] = test: Anti-inflammatory activity inRattus norvegicus albino (rat) assessed as reduction of cotton pellet-induced dry weight of granuloma at 5 mg/kg, po measured after 7 days relative to control
Rattus norvegicus [2] = test: Anti-inflammatory activity inRattus norvegicus albino (rat) assessed as reduction of carrageenan-induced paw edema at 5 mg/kg, po administered 1 hr prior to carrageenan challenge measured after 3 hr by mercury plethysmographic analysis relative to control
Rattus norvegicus [3] = test: Analgesic activity inRattus norvegicus albino (rat) assessed as reduction of minimum electric shock-induced pain at 100 mg/kg after 2 hr relative to control
Rattus norvegicus [4] = test: Analgesic activity inRattus norvegicus albino (rat) assessed as reduction of minimum electric shock-induced pain at 100 mg/kg after 1 hr relative to control
Rattus norvegicus [5] = test: Anti-inflammatory activity inRattus norvegicus albino (rat) assessed as reduction of cotton pellet-induced dry weight of granuloma at 100 mg/kg, po measured after 7 days relative to control
Rattus norvegicus [6] = test: Anti-inflammatory activity inRattus norvegicus albino (rat) assessed as reduction of carrageenan-induced paw edema at 100 mg/kg, po administered 1 hr prior to carrageenan challenge measured after 3 hr by mercury plethysmographic analysis relative to control
Rattus norvegicus [7] = test: Analgesic activity inRattus norvegicus albino (rat) assessed as reduction of minimum electric shock-induced pain at 5 mg/kg after 2 hr relative to control
Rattus norvegicus [8] = test: Analgesic activity inRattus norvegicus albino (rat) assessed as reduction of minimum electric shock-induced pain at 5 mg/kg after 1 hr relative to control

Compound	Activity (Rattus norvegicus [1])	Activity (Rattus norvegicus [2])	Activity (Rattus norvegicus [3])	Activity (Rattus norvegicus [4])	Activity (Rattus norvegicus [5])	Activity (Rattus norvegicus [6])	Activity (Rattus norvegicus [7])	Activity (Rattus norvegicus [8])
COc1ccc2c(c1)c(CC(=O)O)c(C)n2C(=O)c1ccc(Cl)cc1 [INDOMETHACIN]	75.2%	78.3%						
CCOc1ccccc1-n1c(N)c(C#N)c(-c2nc3ccc(I)cc3c(=O)n2-c2ccc(F)cc2)c(C#N)c1=O			53.1%	45.1%	52.2%	20.7%		
O=C(/C=C/c1nc2ccc(I)cc2c(=O)n1-c1ccc(F)cc1)c1ccccc1			54.1%	46.9%	41.8%	28.3%		
O=c1c2cc(I)ccc2nc(C2CC(c3ccccc3)=NN2)n1-c1ccc(Cl)cc1 (centres undefined)			59.2%	55.4%	71.9%	50.4%		
O=C1OC(c2ccccc2)=N/C1=C/c1nc2ccc(I)cc2c(=O)n1-c1ccc(Cl)cc1			63.3%	60.9%	72.6%	49.6%		
CCOc1ccccc1/N=C/c1nc2ccc(I)cc2c(=O)n1-c1ccc(F)cc1			56.1%	39.3%	50.2%	38.9%		
O=C1NC(=S)S/C1=C/c1nc2ccc(I)cc2c(=O)n1-c1ccc(F)cc1			61.3%	57.9%	67.3%	44.8%		
Cc1c(N(C)CS(=O)(=O)[O-])c(=O)n(-c2ccccc2)n1C.[Na+] [DIPYRONE SODIUM]							85.7%	82.9%
O=C(N/N=C/c1nc2ccc(I)cc2c(=O)n1-c1ccc(F)cc1)c1ccncc1			64.3%	57.1%	66.7%	45.3%		
Cc1c(/N=C/c2nc3ccc(I)cc3c(=O)n2-c2ccc(Cl)cc2)c(=O)n(-c2ccccc2)n1C			54.2%	53.7%	60.7%	47.4%		
Cc1c(/N=C/c2nc3ccc(I)cc3c(=O)n2-c2ccc(F)cc2)c(=O)n(-c2ccccc2)n1C			65.6%	64.8%	73.5%	53.5%		
CC(=O)c1c(-c2nc3ccc(I)cc3c(=O)n2-c2ccc(Cl)cc2)[nH][nH]c1=O			61.9%	47.9%	72.2%	48.3%		
